From paper PMC7571155, “Design, Synthesis and Biological Investigation of Flavone Derivatives as Potential Multi-Receptor Atypical Antipsychotics” (Molecules, 2020)
Read-outs that look alike come from different tables or passages of the source.

Key:
5-HT2A receptor [1] = target: T1, 5-HT2A receptor (Homo sapiens, UniProt P28223); assay: Intrinsic activity, FLIPR calcium assay, HEK293/5-HT2A; assay type: cell-based; conditions: for inhibition at 10 µM: HEK293, read-out: Inhibition (10 μM, %), 5-HT2A, antagonist mode, 10 μM, n = 3
T1 construct: expressed in transfected cells; host or cells: HEK293
T1 sequence (P28223 whole entry): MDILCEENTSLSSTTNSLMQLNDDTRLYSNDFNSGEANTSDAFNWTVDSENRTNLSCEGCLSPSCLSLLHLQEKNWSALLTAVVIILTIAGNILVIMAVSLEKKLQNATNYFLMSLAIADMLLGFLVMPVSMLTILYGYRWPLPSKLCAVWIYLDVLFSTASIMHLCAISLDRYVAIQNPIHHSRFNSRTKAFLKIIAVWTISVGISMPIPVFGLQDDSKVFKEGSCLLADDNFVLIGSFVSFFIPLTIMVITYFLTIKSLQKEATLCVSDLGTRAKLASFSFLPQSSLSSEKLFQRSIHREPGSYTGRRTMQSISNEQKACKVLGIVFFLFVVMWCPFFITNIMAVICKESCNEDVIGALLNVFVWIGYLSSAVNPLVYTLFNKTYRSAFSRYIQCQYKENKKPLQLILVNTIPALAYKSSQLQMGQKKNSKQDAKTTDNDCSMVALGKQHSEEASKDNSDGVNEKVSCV

D2L receptor = target: T2, D2L receptor (Homo sapiens, UniProt P14416); assay: Intrinsic activity, FLIPR calcium assay, HEK293/D2L; assay type: cell-based; conditions: for inhibition at 10 µM: HEK293, read-out: Inhibition (10 μM, %), D2L, antagonist mode, 10 μM, n = 3
T2 construct: expressed in transfected cells; host or cells: HEK293
T2 sequence (P14416 whole entry): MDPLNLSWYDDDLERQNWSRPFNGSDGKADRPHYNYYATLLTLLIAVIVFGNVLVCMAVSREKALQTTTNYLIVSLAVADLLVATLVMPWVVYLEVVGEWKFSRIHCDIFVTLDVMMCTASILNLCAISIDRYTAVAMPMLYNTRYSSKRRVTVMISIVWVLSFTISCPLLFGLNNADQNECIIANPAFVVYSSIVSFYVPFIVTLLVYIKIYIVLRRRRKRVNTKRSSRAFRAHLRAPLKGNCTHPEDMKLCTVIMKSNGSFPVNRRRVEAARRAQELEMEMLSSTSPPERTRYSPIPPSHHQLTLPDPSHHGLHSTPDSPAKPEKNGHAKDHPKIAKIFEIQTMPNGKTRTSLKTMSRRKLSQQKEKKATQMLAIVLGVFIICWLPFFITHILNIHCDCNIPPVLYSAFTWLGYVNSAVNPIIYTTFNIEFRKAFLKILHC

D2 receptor = D2 receptor (Rattus norvegicus, UniProt P61169); assay: D2 receptor radioligand binding (3H-spiperone); conditions: for Ki: Receptor Affinity Ki ± SEM D2, rat striatum, 3H-spiperone, mean ± SEM of three experiments; for potency ratio between D2 and 5-HT1A, 5-HT2A: ratio of Ki values
D2 receptor, sequence (P61169 whole entry): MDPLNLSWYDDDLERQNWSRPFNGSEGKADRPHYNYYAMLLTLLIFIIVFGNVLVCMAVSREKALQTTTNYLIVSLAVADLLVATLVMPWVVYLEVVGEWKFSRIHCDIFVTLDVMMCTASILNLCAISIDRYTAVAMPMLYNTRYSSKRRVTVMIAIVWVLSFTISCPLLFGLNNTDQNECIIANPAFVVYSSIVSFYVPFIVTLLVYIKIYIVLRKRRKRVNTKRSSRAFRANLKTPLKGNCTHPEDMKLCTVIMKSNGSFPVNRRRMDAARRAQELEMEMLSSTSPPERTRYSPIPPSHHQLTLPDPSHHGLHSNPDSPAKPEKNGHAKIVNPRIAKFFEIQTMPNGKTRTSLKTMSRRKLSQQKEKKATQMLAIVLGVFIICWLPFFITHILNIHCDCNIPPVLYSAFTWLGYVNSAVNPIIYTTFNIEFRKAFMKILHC

5-HT2A receptor [2] = target: 5-HT2A receptor (Rattus norvegicus, UniProt P14842); assay: 5-HT2A receptor radioligand binding (3H-ketanserin); conditions: Receptor Affinity Ki ± SEM 5-HT2A
5-HT2A receptor (Rattus norvegicus, UniProt P14842), sequence (P14842 whole entry): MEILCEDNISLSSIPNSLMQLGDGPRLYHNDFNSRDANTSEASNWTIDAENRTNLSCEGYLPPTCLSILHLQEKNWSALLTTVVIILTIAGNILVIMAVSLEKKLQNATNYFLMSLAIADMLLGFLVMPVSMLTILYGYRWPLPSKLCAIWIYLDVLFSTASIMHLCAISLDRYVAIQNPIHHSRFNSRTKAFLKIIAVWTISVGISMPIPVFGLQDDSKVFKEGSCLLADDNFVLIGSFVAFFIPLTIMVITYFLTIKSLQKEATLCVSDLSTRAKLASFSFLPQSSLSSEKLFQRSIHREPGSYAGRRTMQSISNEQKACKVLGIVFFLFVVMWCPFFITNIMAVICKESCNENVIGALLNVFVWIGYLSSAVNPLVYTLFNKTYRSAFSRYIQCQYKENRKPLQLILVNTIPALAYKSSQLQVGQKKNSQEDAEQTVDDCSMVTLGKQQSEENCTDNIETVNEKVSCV

5-HT2C receptor = target: T3, 5-HT2C receptor (Rattus norvegicus, UniProt P08909); assay: 5-HT2C receptor radioligand binding (3H-mesulergine); conditions: rat brain cortex, mean ± SEM of three experiments, read-out: Receptor Affinity Ki ± SEM 5-HT2C
T3 sequence (P08909 33-460): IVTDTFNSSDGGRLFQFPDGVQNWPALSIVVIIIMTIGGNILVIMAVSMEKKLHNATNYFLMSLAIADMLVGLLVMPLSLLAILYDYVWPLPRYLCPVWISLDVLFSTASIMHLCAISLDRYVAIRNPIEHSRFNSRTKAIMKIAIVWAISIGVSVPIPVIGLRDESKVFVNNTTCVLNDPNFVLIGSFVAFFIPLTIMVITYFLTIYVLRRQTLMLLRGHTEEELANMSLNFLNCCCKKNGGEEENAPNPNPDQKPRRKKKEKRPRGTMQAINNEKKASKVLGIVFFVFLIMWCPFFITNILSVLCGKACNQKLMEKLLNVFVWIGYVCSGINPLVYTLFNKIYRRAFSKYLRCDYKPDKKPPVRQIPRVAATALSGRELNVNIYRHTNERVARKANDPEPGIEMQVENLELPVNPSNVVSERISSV

α1 receptor = α1 receptor radioligand binding (3H-prazosin); conditions: rat cerebral cortex, mean ± SEM of three experiments, read-out: Receptor Affinity Ki ± SEM α1
H1 receptor = H1 receptor (Cavia porcellus, UniProt P31389); assay: H1 receptor radioligand binding (3H-mepyramine); conditions: guinea pig cerebellum, mean ± SEM of three experiments, read-out: Receptor Affinity Ki ± SEM H1
H1 receptor, sequence (P31389 whole entry): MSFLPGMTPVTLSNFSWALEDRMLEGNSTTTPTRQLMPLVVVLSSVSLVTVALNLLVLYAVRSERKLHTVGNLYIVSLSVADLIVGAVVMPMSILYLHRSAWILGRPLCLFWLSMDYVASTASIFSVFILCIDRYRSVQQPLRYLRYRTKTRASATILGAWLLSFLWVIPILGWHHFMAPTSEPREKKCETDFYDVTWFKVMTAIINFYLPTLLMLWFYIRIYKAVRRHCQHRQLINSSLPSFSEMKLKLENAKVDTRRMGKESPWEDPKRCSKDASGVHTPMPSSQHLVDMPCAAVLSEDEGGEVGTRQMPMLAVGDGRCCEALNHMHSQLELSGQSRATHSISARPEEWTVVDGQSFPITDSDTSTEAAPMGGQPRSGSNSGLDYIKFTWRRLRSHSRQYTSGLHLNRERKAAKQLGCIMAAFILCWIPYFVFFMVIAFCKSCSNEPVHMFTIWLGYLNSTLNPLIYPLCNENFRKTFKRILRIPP

D3 receptor [3] = target: D3 receptor (Rattus norvegicus, UniProt P19020); assay: D3 receptor radioligand binding (3H-7-OH-DPAT)
D3 receptor (Rattus norvegicus, UniProt P19020), sequence (P19020 whole entry): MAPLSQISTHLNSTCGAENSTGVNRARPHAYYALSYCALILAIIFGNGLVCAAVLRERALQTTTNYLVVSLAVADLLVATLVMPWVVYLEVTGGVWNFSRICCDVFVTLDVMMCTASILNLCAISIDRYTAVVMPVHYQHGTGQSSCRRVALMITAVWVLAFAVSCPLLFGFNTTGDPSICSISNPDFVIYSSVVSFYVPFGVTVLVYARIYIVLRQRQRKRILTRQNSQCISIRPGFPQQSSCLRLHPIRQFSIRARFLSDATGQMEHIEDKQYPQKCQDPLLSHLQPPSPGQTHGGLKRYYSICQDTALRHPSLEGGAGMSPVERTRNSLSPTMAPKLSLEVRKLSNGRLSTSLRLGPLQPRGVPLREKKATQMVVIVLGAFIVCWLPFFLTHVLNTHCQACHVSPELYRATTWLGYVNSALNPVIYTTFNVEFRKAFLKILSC

hERG potassium channels = hERG potassium channels (Homo sapiens, UniProt Q12809); assay: hERG potassium channel block, patch clamp in HEK cells
hERG potassium channels, sequence (Q12809 whole entry): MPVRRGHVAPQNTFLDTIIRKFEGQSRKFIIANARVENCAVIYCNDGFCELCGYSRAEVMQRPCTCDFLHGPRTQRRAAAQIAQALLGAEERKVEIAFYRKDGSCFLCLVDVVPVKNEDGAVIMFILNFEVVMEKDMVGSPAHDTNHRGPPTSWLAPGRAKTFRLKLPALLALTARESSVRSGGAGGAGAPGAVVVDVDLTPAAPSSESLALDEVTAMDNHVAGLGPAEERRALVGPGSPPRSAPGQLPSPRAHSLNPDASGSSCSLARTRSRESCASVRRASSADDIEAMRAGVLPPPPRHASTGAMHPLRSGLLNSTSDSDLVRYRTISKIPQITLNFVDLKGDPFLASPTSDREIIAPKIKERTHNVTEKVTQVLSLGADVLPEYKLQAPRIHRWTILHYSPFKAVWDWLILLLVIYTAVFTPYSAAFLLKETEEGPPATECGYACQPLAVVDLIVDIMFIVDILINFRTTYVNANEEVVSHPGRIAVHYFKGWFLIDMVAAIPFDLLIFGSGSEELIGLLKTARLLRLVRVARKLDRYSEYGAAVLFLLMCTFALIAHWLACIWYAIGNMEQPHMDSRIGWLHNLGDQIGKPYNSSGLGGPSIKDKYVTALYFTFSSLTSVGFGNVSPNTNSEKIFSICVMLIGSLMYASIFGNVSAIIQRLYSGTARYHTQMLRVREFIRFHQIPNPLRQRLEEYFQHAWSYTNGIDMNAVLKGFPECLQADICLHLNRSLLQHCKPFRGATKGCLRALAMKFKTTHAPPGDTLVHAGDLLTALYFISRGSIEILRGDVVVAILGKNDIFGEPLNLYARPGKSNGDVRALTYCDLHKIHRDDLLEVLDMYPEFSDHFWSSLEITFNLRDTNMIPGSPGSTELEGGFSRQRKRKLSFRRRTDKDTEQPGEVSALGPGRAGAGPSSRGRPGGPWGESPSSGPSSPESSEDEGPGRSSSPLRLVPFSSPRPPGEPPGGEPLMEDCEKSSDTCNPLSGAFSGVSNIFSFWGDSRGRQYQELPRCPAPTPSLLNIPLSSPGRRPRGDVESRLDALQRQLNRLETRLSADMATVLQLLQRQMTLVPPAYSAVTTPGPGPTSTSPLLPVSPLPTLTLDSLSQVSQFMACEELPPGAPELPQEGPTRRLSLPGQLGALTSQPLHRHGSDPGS

D3 receptor [4] = target: T4, D3 receptor (Homo sapiens, UniProt P35462); assay: Intrinsic activity, FLIPR calcium assay, HEK293/ACTOne D3; assay type: cell-based
T4 construct: expressed in transfected cells; host or cells: HEK293/ACTOne
T4 sequence (P35462 whole entry): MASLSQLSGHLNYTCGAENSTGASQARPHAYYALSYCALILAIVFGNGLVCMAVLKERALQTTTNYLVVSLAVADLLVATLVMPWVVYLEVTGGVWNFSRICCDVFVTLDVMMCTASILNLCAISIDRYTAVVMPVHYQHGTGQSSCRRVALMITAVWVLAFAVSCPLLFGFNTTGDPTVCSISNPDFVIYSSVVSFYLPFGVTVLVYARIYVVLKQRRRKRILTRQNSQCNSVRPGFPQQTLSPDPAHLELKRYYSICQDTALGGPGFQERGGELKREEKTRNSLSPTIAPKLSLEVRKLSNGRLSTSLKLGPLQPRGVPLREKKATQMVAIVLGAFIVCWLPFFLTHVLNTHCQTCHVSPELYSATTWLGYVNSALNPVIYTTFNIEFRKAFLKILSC

5-HT1A receptor = target: T5, 5-HT1A receptor (Homo sapiens, UniProt P08908); assay: Intrinsic activity, FLIPR calcium assay, HEK293/5-HT1A; assay type: cell-based; conditions: antagonist mode
T5 construct: expressed in transfected cells; host or cells: HEK293
T5 sequence (P08908 1-422): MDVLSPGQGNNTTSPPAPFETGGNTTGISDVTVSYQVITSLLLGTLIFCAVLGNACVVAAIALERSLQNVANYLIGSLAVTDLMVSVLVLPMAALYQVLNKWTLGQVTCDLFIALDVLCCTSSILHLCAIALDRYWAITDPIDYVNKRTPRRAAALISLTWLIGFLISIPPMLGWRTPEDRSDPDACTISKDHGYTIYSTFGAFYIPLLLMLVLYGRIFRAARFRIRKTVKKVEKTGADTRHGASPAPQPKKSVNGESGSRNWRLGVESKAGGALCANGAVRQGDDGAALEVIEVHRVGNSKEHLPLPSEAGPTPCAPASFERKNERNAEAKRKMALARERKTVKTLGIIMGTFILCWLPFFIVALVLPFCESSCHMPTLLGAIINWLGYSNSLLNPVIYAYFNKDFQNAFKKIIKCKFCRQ

[5] = test system: APO-induced climbing in mice; assay: Apomorphine-induced climbing; assay type: in vivo; conditions: Mus musculus, po, apomorphine 1.0 mg/kg sc
Method: Apomorphine-Induced Climbing [1-3].
Animals were placed in Plexiglas cages
for evaluating locomotor activity.
5.3 Catalepsy Test [1-3].
Catalepsy was evaluated on a metal
(§1) A mean immobility score of 30 s was used
(§2) as the criterion for the presence of catalepsy.

[6] = test system: MK-801-induced hyperactivity in mice; assay: MK-801-induced hyperactivity; assay type: in vivo; conditions: Mus musculus, po, MK-801 0.3 mg/kg sc, read-out: MK-80: MK-801-induced hyperactivity ED50
Method: Apomorphine-Induced Climbing [1-3].
Animals were placed in Plexiglas cages
for evaluating locomotor activity.
5.3 Catalepsy Test [1-3].
Catalepsy was evaluated on a metal
as §1, §2

in vivo [7] = conditions: mouse, po
in vivo [8] = conditions: mouse
[9] = rat brain cortex, 3H-ketanserin, mean ± SEM of three experiments

SMILES | melting point | Ki (D2 receptor) | Ki (5-HT2A receptor [2]; [9]) | further results
O=C(c1ccc(F)cc1)C1CCN(CCn2c(=O)[nH]c3ccccc3c2=O)CC1 [ketanserin, reference compound] | – | – | – | inhibition at 10 µM (5-HT2A receptor [1]): 98.2 ± 2.6%
CN1CCc2cc(Cl)c(O)cc2[C@@H](c2ccccc2)C1 [SCH23390] | – | – | – | IC50 (D2L receptor; D2L, antagonist mode, read-out: IC50): 31.6 nM; inhibition at 10 µM (D2L receptor): 99.1 ± 3.2%
CC1Oc2cc(OCCCCN3CCC(c4noc5cc(F)ccc45)CC3)ccc2C(=O)C1C (stereo not shown) [Compound 21, 7-(4-(4-(6-fluorobenzo[d]isoxazol-3-yl)piperidin-1-yl)butoxy)-2,3-dimethylchroman-4-one] | 82 to 84 °C | 28.4 ± 3.2 nM | 2.4 ± 1.9 nM | –
O=C1CC2(CCCCC2)Oc2cc(OCCCN3CCC(c4noc5cc(F)ccc45)CC3)ccc21 [Compound 9g, 7-(3-(4-(6-Fluorobenzo[d]isoxazol-3-yl)piperidin-1-yl)propoxy)spiro[chromane-2,1′-cyclohexan]-4-one] | 96 to 98 °C | 18.4 ± 1.8 nM | 9.1 ± 1.1 nM | Ki (5-HT2C receptor): 401 ± 55.6 nM; Ki (α1 receptor): 138 ± 39.8 nM; Ki (H1 receptor): 909 ± 78.5 nM; potency ratio between D2 and 5-HT1A, 5-HT2A (D2 receptor): less than 5; Ki (D3 receptor [3]): 35.2 ± 2.8 nM; IC50 (hERG potassium channels): 3020 ± 291 nM
O=C1CC2(CCCC2)Oc2cc(OCCCN3CCC(c4noc5cc(F)ccc45)CC3)ccc21 [Compound 9c, 7-(3-(4-(6-Fluorobenzo[d]isoxazol-3-yl)piperidin-1-yl)propoxy)spiro[chromane-2,1′-cyclopentan]-4-one] | 91 to 93 °C | 18.9 ± 2.1 nM | 8.3 ± 0.9 nM | –
CC1(C)CC(=O)c2ccc(OCCCCN3CCC(c4noc5cc(F)ccc45)CC3)cc2O1 [Compound 6j, 7-(4-(4-(6-Fluorobenzo[d]isoxazol-3-yl)piperidin-1-yl)butoxy)-2,2-dimethylchroman-4-one] | – | 12.1 ± 1.5 nM | – | Ki (5-HT2C receptor): 566 ± 75.4 nM; Ki (α1 receptor): 237 ± 86.4 nM; Ki (H1 receptor): 939 ± 101 nM; IC50 (D2L receptor): 8.9 nM; inhibition at 10 µM (D2L receptor): > 90%; IC50 (D3 receptor [4]): 31.5 nM; inhibition at 10 µM (D3 receptor [4]; HEK293, read-out: Inhibition (10 μM, %), D3, antagonist mode, 10 μM, n = 3): > 90%; IC50 (5-HT1A receptor; 5-HT1A): 201 nM; inhibition at 10 µM (5-HT1A receptor; HEK293, 5-HT1A, 10 μM, n = 3): > 90%; IC50 (5-HT2A receptor [1]): 195 nM; inhibition at 10 µM (5-HT2A receptor [1]): > 90%; ED50 [5]: 0.19 mg/kg; ED50 [6]: 0.16 mg/kg; ED50 (in vivo [7]; Kun Ming (KM)): 58.4 mg/kg; ED50 (in vivo [7]): 56.8 mg/kg; LD50 at 24 h (in vivo [8]): > 2000 mg/kg; Ki (D3 receptor [3]): 25.4 ± 3.1 nM; Ki (5-HT2A receptor [2]): 3.2 ± 0.4 nM; IC50 (hERG potassium channels): 3770 ± 298 nM
CC1(C)CC(=O)c2ccc(OCCCCN3CCN(c4nsc5ccccc45)CC3)cc2O1 [Compound 6i, 7-(4-(4-(Benzo[d]isothiazol-3-yl)piperazin-1-yl)butoxy)-2,2-dimethylchroman-4-one] | 119 to 120 °C | 26.2 ± 2.7 nM | 19.5 ± 2.2 nM | –
Cc1cccc(N2CCN(CCCCOc3ccc4c(c3)OC3(CCCCC3)CC4=O)CC2)c1C [Compound 9i, 7-(4-(4-(2,3-Dimethylphenyl)piperazin-1-yl)butoxy)spiro[chromane-2,1′-cyclohexan]-4-one] | 138 to 140 °C | 154 ± 19.6 nM | 67.5 ± 7.4 nM | –
CC1(C)CC(=O)c2ccc(OCCCN3CCC(c4noc5cc(F)ccc45)CC3)cc2O1 [Compound 6l, 7-(3-(4-(6-Fluorobenzo[d]isoxazol-3-yl)piperidin-1-yl)propoxy)-2,2-dimethylchroman-4-one] | 116 to 118 °C | 18.6 ± 2.3 nM | 6.7 ± 0.7 nM | –
CN1CCN(C2=Nc3cc(Cl)ccc3Nc3ccccc32)CC1 [Clozapine, reference compound] | – | – | – | ED50 [5]: 17.9 mg/kg; ED50 [6]: 2.28 mg/kg; ED50 (in vivo [7]): 50 mg/kg
CC1(C)CC(=O)c2ccc(OCCCCN3CCN(c4cccc(C(F)(F)F)c4)CC3)cc2O1 [Compound 6c, 2,2-Dimethyl-7-(4-(4-(3-(trifluoromethyl)phenyl)piperazin-1-yl)butoxy) chroman-4-one] | 139 to 140 °C | 1130 ± 108 nM | 147 ± 16.9 nM | –
COc1ccccc1N1CCN(CCCOc2ccc3c(c2)OC2(CCCC2)CC3=O)CC1 [Compound 9a, 7-(3-(4-(2-Methoxyphenyl)piperazin-1-yl)propoxy) spiro[chromane-2,1′-cyclopentan]-4-one] | 128 to 130 °C | 3850 ± 328 nM | 72 ± 6.8 nM | –
CC1(C)CC(=O)c2ccc(OCCCCN3CCN(Cc4ccc5c(c4)OCO5)CC3)cc2O1 [Compound 6g, 7-(4-(4-(Benzo[d] [1, 3]dioxol-5-ylmethyl)piperazin-1-yl)butoxy)-2,2-dimethylchroman-4-one] | 112 to 114 °C | 1140 ± 140 nM | 380 ± 39.1 nM | –
COc1ccccc1N1CCN(CCCOc2ccc3c(c2)OC2(CCCCC2)CC3=O)CC1 [Compound 9e, 7-(3-(4-(2-Methoxyphenyl)piperazin-1-yl)propoxy)spiro[chromane-2,1′-cyclohexan]-4-one] | 105 to 107 °C | 2050 ± 229 nM | 93.5 ± 7.9 nM | –
CC1CC(=O)c2ccc(OCCCCN3CCC(c4noc5cc(F)ccc45)CC3)cc2O1 (stereo not shown) [Compound 16a, 7-(4-(4-(6-Fluorobenzo[d]isoxazol-3-yl)piperidin-1-yl)butoxy)-2-methylchroman-4–one] | 95 to 97 °C | 19.7 ± 2.7 nM | 7.9 ± 0.5 nM | –
O=C1CC2(CCCCC2)Oc2cc(OCCCCN3CCC(c4noc5cc(F)ccc45)CC3)ccc21 [Compound 9h, 7-(4-(4-(6-Fluorobenzo[d]isoxazol-3-yl)piperidin-1-yl)butoxy)spiro[chromane-2,1′-cyclohexan]-4-one] | – | 17 ± 2.3 nM | 7.3 ± 0.4 nM | Ki (5-HT2C receptor): 528 ± 68.5 nM; Ki (α1 receptor): 102 ± 50.6 nM; Ki (H1 receptor): 819 ± 91.8 nM; Ki (D3 receptor [3]): 38.6 ± 3.7 nM; IC50 (hERG potassium channels): 3980 ± 411 nM
COc1ccccc1N1CCN(CCCOc2ccc3c(c2)OC(C)(C)CC3=O)CC1 [Compound 6k, 7-(3-(4-(2-Methoxyphenyl)piperazin-1-yl)propoxy)-2,2-dimethylchroman-4-one] | 103 to 105 °C | 3160 ± 466 nM | 33.1 ± 4.5 nM | –
CC1(C)CC(=O)c2ccc(OCCCCN3CCN(c4ncccn4)CC3)cc2O1 [Compound 6f, 2,2-Dimethyl-7-(4-(4-(pyrimidin-2-yl)piperazin-1-yl)butoxy) chroman-4-one] | 128 to 131 °C | > 10000 nM | 1140 ± 152 nM | –
NCCc1ccc(O)c(O)c1 [dopamine] | – | – | – | Activation (10 μM, %) (D2L receptor; D2L, agonist mode, 10 μM, n = 3): 101.3 ± 5.3%
O=C1CC2(CCCC2)Oc2cc(OCCCCN3CCC(c4noc5cc(F)ccc45)CC3)ccc21 [Compound 9d, 7-(4-(4-(6-Fluorobenzo[d]isoxazol-3-yl)piperidin-1-yl)butoxy)spiro[chromane-2,1′-cyclopentan]-4-one] | 103 to 105 °C | 15.7 ± 1.9 nM | 8.5 ± 0.7 nM | Ki (5-HT2C receptor): 426 ± 47.8 nM; Ki (α1 receptor): 162 ± 57.1 nM; Ki (H1 receptor): 784 ± 98.3 nM; potency ratio between D2 and 5-HT1A, 5-HT2A (D2 receptor): less than 5; Ki (D3 receptor [3]): 42.6 ± 5.3 nM; IC50 (hERG potassium channels): 3380 ± 352 nM
